Measured values reported in patent US8669072B2, “Oxadiazoline ligands for modulating the expression of exogenous genes via an ecdysone receptor complex” (Intrexon Corporation, priority 2003, dated 2014).

How the values were obtained:
Bombyx mori EcR (VBE) = biological target: T1, Bombyx mori EcR (VBE) (Bombyx mori, UniProt P49881); assay: Z3 assay: β-galactosidase reporter gene induction in HEK-293 clone Z3 (CVBE / 6XEcRE LacZ); format: cell-based; settings: 33 μM ligand, 48 h, RLU relative to DMSO; for fold induction at 33 µM: HEK293, read-out: Fold Induction Average, Z3 assay
T1 construct: expressed in transfected cells; host or cells: Human HEK-293 cells, retrovirally infected, clone Z3
T1 sequence (P49881 86-606 limits assumed): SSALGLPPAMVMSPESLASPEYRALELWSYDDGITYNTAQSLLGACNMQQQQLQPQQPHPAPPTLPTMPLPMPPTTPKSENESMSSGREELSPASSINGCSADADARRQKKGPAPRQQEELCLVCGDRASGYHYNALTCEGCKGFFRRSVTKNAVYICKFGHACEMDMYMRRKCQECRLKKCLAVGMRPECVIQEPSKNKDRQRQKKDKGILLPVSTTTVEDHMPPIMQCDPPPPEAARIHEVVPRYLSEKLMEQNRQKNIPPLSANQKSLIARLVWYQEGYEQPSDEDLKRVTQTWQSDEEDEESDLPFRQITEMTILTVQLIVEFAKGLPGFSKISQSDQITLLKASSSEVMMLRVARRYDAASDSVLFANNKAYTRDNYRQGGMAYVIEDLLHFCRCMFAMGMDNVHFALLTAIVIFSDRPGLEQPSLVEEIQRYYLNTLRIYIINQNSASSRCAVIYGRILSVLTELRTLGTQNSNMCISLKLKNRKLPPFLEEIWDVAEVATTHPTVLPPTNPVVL
T1 sequence (P19793 1-462 partner): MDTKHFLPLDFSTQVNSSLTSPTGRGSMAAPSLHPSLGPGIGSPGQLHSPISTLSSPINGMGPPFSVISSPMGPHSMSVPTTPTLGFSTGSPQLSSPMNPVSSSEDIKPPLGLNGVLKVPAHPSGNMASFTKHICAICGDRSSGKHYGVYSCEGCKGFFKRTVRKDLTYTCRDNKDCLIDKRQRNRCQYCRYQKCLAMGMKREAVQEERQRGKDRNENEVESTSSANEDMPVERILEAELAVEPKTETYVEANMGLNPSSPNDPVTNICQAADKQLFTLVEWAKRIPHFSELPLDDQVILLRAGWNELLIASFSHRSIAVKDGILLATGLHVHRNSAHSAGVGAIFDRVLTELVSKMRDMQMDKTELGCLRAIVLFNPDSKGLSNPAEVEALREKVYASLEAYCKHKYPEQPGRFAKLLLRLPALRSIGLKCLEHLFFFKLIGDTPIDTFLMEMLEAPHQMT
Description: A synthetic ATG start codon was placed under the control of cytomegalovirus (CVBE) immediate early promoter and flanked by long terminal repeats (LTR). The reporter construct contained six copies of the ecdysone response element (EcRE) binding site placed upstream of LacZ and flanked on both sides with LTR sequences (6×EcRE).
Dilution cloning was used to isolate individual clones. Clones were selected using 450 ug/mL G418 and 100 ng/mL puromycin. Individual clones were evaluated based on their response in the presence and absence of test ligands.
Z3 cells were seeded into 96-well tissue culture plates at a concentration of 2.5×10^3 cells per well and incubated at 37° C. in 5% CO2 for twenty-four hours. Stock solutions of ligands were prepared in DMSO. […] The final concentration of DMSO was maintained at 0.03% in both controls and treatments.
Reporter gene expression was evaluated 48 hours after treatment of cells, β-galactosidase activity was measured using Gal Screen™ bioluminescent reporter gene assay system from Tropix (GSY1000). Fold induction activities were calculated by dividing relative light units (“RLU”) in ligand treated cells with RLU in DMSO treated cells. Luminescence was detected at room temperature using a Dynex MLX microtiter plate luminometer.
(§1) Each assay was conducted in two separate wells, and the two values were averaged. Fold inductions were calculated by dividing relative light units (“RLU”) in ligand treated cells with RLU in DMSO treated cells. EC50s were calculated from dose response data using a three-parameter logistic model.

[1] = biological target: T2, GAL4 DBD-CfEcR(DEF)/VP16AD-MmRXRE (Choristoneura fumiferana, UniProt O77240); assay: 13B3 assay: luciferase reporter gene induction in stable CHO clone 13B3; format: cell-based; settings: 33/33.3 μM ligand, 48 h, RLU relative to DMSO
T2 construct: The wild-type D, E, and F domains from spruce budworm Choristoneura fumiferana EcR (“CfEcR-DEF”)
Description: CHO cells were transiently transfected with transcription cassettes for GAL4 DBD-CfEcR(DEF) and for VP16AD-MmRXRF controlled by SV40e promoters. Stably transfected cells were selected using Hygromycin. Individually isolated CHO cell clones were transiently transfected with a GAL4 RE-luciferase reporter (pFR-Luc, Stratagene, La Jolla, Calif.). The 13B3 clone was selected using Zeocin.
(§2) Cells were trypsinized and diluted to a concentration of 2.5×10^4 cells mL. 100 μL of cell suspension was placed in each well of a 96 well plate and incubated at 37° C. under 5% CO2 for 24 h. Ligand stock solutions were prepared in DMSO and diluted 300 fold for all treatments.
(§3) Luciferase reporter gene expression was measured 48 h after cell treatment using Bright-Glo™ Luciferase Assay System from Promega (E2650). Luminescence was detected at room temperature using a Dynex MLX microtiter plate luminometer.
as §1

[2] = biological target: T3, GAL4 DBD (1-147)-CfEcR(DEF)/VP16AD-βRXREF-LmUSPEF (Choristoneura fumiferana, UniProt O77240); assay: cell-based; settings: for fold induction at 33.3 µM: 48 h, read-out: Fold Induction Average, 27-63 assay; for Rel Max FI, 27-63 assay: maximum fold induction relative to that of GS-E ligand
T3 construct: The wild-type D, E, and F domains from spruce budworm Choristoneura fumiferana EcR (“CfEcR-DEF”)
Description: Stably transfected cells were selected by Zeocin resistance. Individually isolated CHO cell clones were transiently transfected with a GAL4 RE-luciferase reporter (pFR Luc). 27-63 clone was selected using Hygromycin.
as §2, §3, §1

| SMILES | Fold Induction Average, Z3 assay (Bombyx mori EcR (VBE)) | Fold Induction Average, 13B3 assay [1] | EC50 [2] | fold induction at 33.3 µM [2] | Rel Max FI, 27-63 assay [2] | fold induction at 33 µM (Bombyx mori EcR (VBE)) |
| --- | --- | --- | --- | --- | --- | --- |
| Cc1cccc(NC(=O)NN2C(c3cc(C)cc(C)c3)=NOC2(C)C)c1 [RG-120056] | 1.0 | 0.1 |  |  |  |  |
| CC1(C)ON=C(c2ccc(Cl)cc2)N1NC(=O)COCc1ccccc1 [RG-120117] | 0.8 | 1.2 |  |  |  |  |
| CCc1c(C(=O)NN2C(c3ccccc3)=NOC2(C)C)ccc2c1OCCO2 [RG-121517, 5-ethyl-2,3-dihydro-benzo[1,4]dioxine-6-carboxylic acid (5,5-dimethyl-3-phenyl-[1,2,4]oxadiazol-4-yl)-amide] |  |  | ~20 µM | 3510 | 1.55 |  |
| COc1ccc(C2=NOC(C)(C)N2NC(=O)c2cc3ccccc3s2)c(OC)c1 [RG-120129] | 0.4 | 0.9 |  |  |  |  |
| CC1(C)ON=C(c2ccc3c(c2)OCO3)N1NC(=O)COc1ccccc1 [RG-120127] | 0.7 | 0.6 |  |  |  |  |
| CCc1c(OC)cccc1C(=O)NN1C(c2cccc(C(F)(F)F)c2)=NOC1(C)C [RG-120093] |  |  | > 33 µM | 5 | 0 | 0.2 |
| Cc1cc(C)cc(C2=NOC(C)(C)N2NC(=O)NC(=O)c2ccccc2)c1 [RG-120111] | 0.7 | 0.6 |  |  |  |  |
| CC1(C)ON=C(c2ccc3c(c2)OCO3)N1NC(=O)c1ccco1 [RG-120149] | 0.7 | 1.1 |  |  |  |  |
| CC1(C)ON=C(c2cccc(C(F)(F)F)c2)N1NC(=O)c1cc2ccccc2s1 [RG-120108] | 0.3 |  |  |  |  |  |
| CCc1ccc(C(=O)NN2C(c3cccc(C(F)(F)F)c3)=NOC2(C)C)cc1 [RG-120148] |  |  | > 33 µM | 0.7 | 0 | 1.1 |
| COc1ccccc1C1=NOC(C)(C)N1NC(=O)c1ccco1 [RG-120012] | 0.7 | 0.7 |  |  |  |  |
| CC1(C)ON=C(c2ccc3c(c2)OCO3)N1NC(=O)c1ccccc1 [RG-120156] | 0.7 | 1.4 |  |  |  |  |
| CC1(C)ON=C(c2ccc(OC(F)(F)F)cc2)N1NC(=O)c1ccco1 [RG-120094] | 0.8 | 0.6 |  |  |  |  |
| CC1(C)ON=C(c2ccc(OC(F)(F)F)cc2)N1NC(=O)Cc1ccccc1 [RG-120160] | 0.6 | 0.3 |  |  |  |  |
| Cc1cc(C)cc(C2=NOC(C)(C)N2NC(=O)c2cccc([N+](=O)[O-])c2)c1 [RG-120091] | 1.5 | 0.5 |  |  |  |  |
| COc1ccccc1C1=NOC(C)(C)N1NC(=O)C(F)(F)C(F)(F)Cl [RG-120062] | 0.6 | 0.2 |  |  |  |  |
| COc1ccc(C2=NOC(C)(C)N2NC(=O)COc2ccccc2)c(OC)c1 [RG-120079] | 0.6 | 0.7 |  |  |  |  |
| COc1ccc(C2=NOC(C)(C)N2NC(=O)Nc2ccccc2)c(OC)c1 [RG-120114] | 0.6 | 1.1 |  |  |  |  |
| COc1ccc(C2=NOC(C)(C)N2NC(=O)Cc2ccccc2)c(OC)c1 [RG-120078] | 0.4 |  |  |  |  |  |

| SMILES | Fold Induction Average, Z3 assay (Bombyx mori EcR (VBE)) | Fold Induction Average, 13B3 assay [1] | EC50 [2] | fold induction at 33.3 µM [2] | Rel Max FI, 27-63 assay [2] | fold induction at 33 µM (Bombyx mori EcR (VBE)) |
| --- | --- | --- | --- | --- | --- | --- |
| CC1(C)ON=C(c2ccc(Cl)cc2)N1NC(=O)c1ccccc1 [RG-120151] | 0.8 | 0.3 |  |  |  |  |
| CCOC(=O)CCC(=O)NN1C(c2ccc(Cl)cc2)=NOC1(C)C [RG-120164] | 0.6 | 1.7 |  |  |  |  |
| CC1(C)ON=C(c2ccc(OC(F)(F)F)cc2)N1NC(=O)COCc1ccccc1 [RG-120066] | 0.6 | 1.4 |  |  |  |  |
| CC1(C)ON=C(c2cccc(C(F)(F)F)c2)N1NC(=O)COCc1ccccc1 [RG-120006] | 0.5 | 1.1 |  |  |  |  |
| CC1(C)ON=C(c2ccc(OC(F)(F)F)cc2)N1NC(=O)c1cc2ccccc2s1 [RG-120109] | 0.2 |  |  |  |  |  |
| CCc1c(C(=O)NN2C(c3cc(C)cc(C)c3)=NOC2(C)CC)ccc2c1OCCO2 (stereo not drawn) [RG-121518] |  |  | 3.57 µM | 2340 | 1.08 |  |
| CC1(C)ON=C(c2cccc(C(F)(F)F)c2)N1NC(=O)C(F)(F)C(F)(F)Cl [RG-120059] | 0.6 |  |  |  |  |  |
| CCc1ccc(C(=O)NN2C(c3ccccc3)=NOC2(C)C)c(F)c1 [RG-121516] |  |  | > 33 µM | 7.9 | 0 |  |
| CCc1c(OC)cccc1C(=O)NN1C(c2ccc3c(c2)OCO3)=NOC1(C)C [RG-120023] |  |  | > 33 µM | 1.4 | 0 | 0.2 |
| COc1ccccc1C1=NOC(C)(C)N1NC(=O)Cc1ccccc1 [RG-120157] | 0.9 |  |  |  |  |  |
| CCc1ccc(C(=O)NN2C(c3cc(C)cc(C)c3)=NOC23CCOCC3)cc1 [RG-120005] |  |  | > 33 µM | 0.8 | 0 |  |
| Cc1cc(C)cc(C2=NOC3(CCOCC3)N2NC(=O)c2ccccc2)c1 [RG-120019] |  |  | > 33 µM | 1.5 | 0 |  |
| CCOC(=O)CCC(=O)NN1C(c2ccccc2)=NOC12CCCC2 [RG-120014] | 1.1 |  |  |  |  |  |
| CCc1ccc(C(=O)NN2C(c3cc(C)cc(C)c3)=NOC2(C)CC)c(F)c1 (stereo not drawn) [RG-121513] |  |  | ~10 µM | 1020 | 0.44 |  |
| CCc1c(OC)cccc1C(=O)NN1C(c2ccc(OC(F)(F)F)cc2)=NOC1(C)C [RG-120022] |  |  | > 33 µM | 0.3 | 0 | 0.1 |
| Cc1cc(C)cc(C2=NOC3(CCOCC3)N2NC(=O)COc2ccccc2)c1 [RG-120048] | 1.0 |  |  |  |  |  |
| CCOC(=O)CCC(=O)NN1C(c2ccc(OC)cc2OC)=NOC1(C)C [RG-120038] | 0.2 |  |  |  |  |  |
| CCc1ccc(C(=O)NN2C(c3ccccc3)=NOC23CCCC3)c(F)c1 [RG-121514] |  |  | 3.89 µM | 1.7 | 0.5 |  |
| CCc1ccc(C(=O)NN2C(c3cc(C)cc(C)c3)=NOC23CCCC3)c(F)c1 [RG-121515] |  |  | ~5 µM | 36.6 | 0.17 |  |
